# How the values were obtained:
# [1] = tested on: Myelo
# Description: (§3) Toxicity was asssessed by the methods reported in Toxicology in Vitro, 15 (2001) 571-577, J. Luber Narod et al.: “Evaluation of the use of in vitro methodolodies as tools for screening new compounds for potential in vivo toxicity”.
# [2] = tested on: LoVo-Dox; assay: Inhibition of cells growth by colorimetric assay (SRB), LoVo-Dox; format: cell-based; settings: SRB, 48 hours exposure
# Method in brief: (§1)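 Cells in RPMI 1640 with 10% FBS were seeded at 5×10^3 per well, allowed 18 h to attach, then exposed to compound (10 to 10^−8 μg/ml, in DMSO/EtOH/PBS 0.5:0.5:99) for 48 h. After TCA fixation and SRB staining, bound dye was solubilized in Tris and OD read at 490 nm; GI, TGI and LC derived from triplicates.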
# [3] = tested on: Kidney
# Description: as §3
# [4] = tested on: HT-29; assay: Inhibition of cells growth by colorimetric assay (SRB), HT-29; format: cell-based; settings: SRB, 48 hours exposure
# Method in brief: as §1
# [5] = tested on: PANC-1; assay: Inhibition of cells growth by colorimetric assay (SRB), PANC-1; format: cell-based; settings: SRB, 48 hours exposure
# Method in brief: as §1
# [6] = tested on: LoVo; assay: Inhibition of cells growth by colorimetric assay (SRB), LoVo; format: cell-based; settings: LOVO, SRB, 48 hours exposure
# Method in brief: as §1
# [7] = tested on: SK-OV-3; assay: Inhibition of cells growth by colorimetric assay (SRB), SK-OV-3; format: cell-based; settings: SRB, 48 hours exposure
# Method in brief: as §1
# [8] = tested on: IGROV-1; assay: Inhibition of cells growth by colorimetric assay (SRB), IGROV-1; format: cell-based; settings: IGROV, SRB, 48 hours exposure
# Method in brief: as §1
# [9] = tested on: IGROV-ET; assay: Inhibition of cells growth by colorimetric assay (SRB), IGROV-ET; format: cell-based; settings: IGROV-ET, SRB, 48 hours exposure
# Method in brief: as §1
# [10] = tested on: DU-145; assay: Inhibition of cells growth by colorimetric assay (SRB), DU-145; format: cell-based; settings: SRB, 48 hours exposure
# Method in brief: as §1
# [11] = tested on: Liver
# Description: as §3
# [12] = tested on: Heart
# Description: as §3
# [13] = tested on: SK-MEL-28; assay: Inhibition of cells growth by colorimetric assay (SRB), SK-MEL-28; format: cell-based; settings: MEL-28, SRB, 48 hours exposure
# Method in brief: as §1
# [14] = tested on: A-549; assay: Inhibition of cells growth by colorimetric assay (SRB), A-549; format: cell-based; settings: A-549, SRB, 48 hours exposure
# Method in brief: as §1
# [15] = tested on: HMEC1; assay: Inhibition of cells growth by colorimetric assay (SRB), HMEC1; format: cell-based; settings: SRB, 48 hours exposure
# Method in brief: as §1
# [16] = tested on: SK-BR-3; assay: Inhibition of cells growth by colorimetric assay (SRB), SK-BR-3; format: cell-based; settings: SK-BR3, SRB, 48 hours exposure
# Method in brief: as §1
# [17] = tested on: LNCaP; assay: Inhibition of cells growth by colorimetric assay (SRB), LNCaP; format: cell-based; settings: LNCAP, SRB, 48 hours exposure
# Method in brief: as §1
# [18] = tested on: K-562; assay: Inhibition of cells growth by colorimetric assay (SRB), K-562; format: cell-based; settings: K-562, SRB, 48 hours exposure
# Method in brief: as §1
# [19] = tested on: Skeletal
# Description: as §3
# [20] = tested on: HT-29; assay: Inhibition of cell growth by counting cells, HT-29; format: cell-based, human; settings: Homo sapiens, HT-29, 72 h; three days of incubation; read-out: IC50 (molar) HT-29
# Method in brief: (§2)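 Growth inhibition by direct cell counting: exponentially growing cells treated 3 days with compound at 37° C; IC50 derived from dose-response of net cells per well.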
# [21] = tested on: DU-145; assay: Inhibition of cell growth by counting cells, DU-145; format: cell-based, human; settings: Homo sapiens, DU-145, 72 h; three days of incubation; read-out: IC50 (molar) DU-145
# Method in brief: as §2
# [22] = tested on: MEL-28; assay: Inhibition of cell growth by counting cells, MEL-28; format: cell-based, human; settings: Homo sapiens, SK-MEL-28, 72 h; three days of incubation; read-out: IC50 (molar) MEL-28
# Method in brief: as §2
# [23] = tested on: P-388; assay: Inhibition of cell growth by counting cells, P-388; format: cell-based, mouse; settings: Mus musculus, P388, 72 h; three days of incubation; read-out: IC50 (molar) P-388
# Method in brief: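 IC50 is the sample concentration halving growth, taken from dose-response curves of cell counts (Coulter counter, duplicate wells) relative to drug-free cultures. P-388 (DBA/2 mouse lymphoid neoplasm) cells plated at 1×10^4 per well in EMEM with 5% FCS plus test sample.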
# [24] = tested on: A-549; assay: Inhibition of cell growth by counting cells, A-549; format: cell-based, human; settings: Homo sapiens, A549, 72 h; three days of incubation; read-out: IC50 (molar) A-549
# Method in brief: as §2
smiles,measurement,setting,value
COc1cc2c(cc1OC(=O)Cc1cc(=O)oc3cc(N(C)C)ccc13)CCN[C@]21CS[C@@H]2c3c(OC(C)=O)c(C)c4c(c3[C@H](COC1=O)N1C2[C@H]2c3c(cc(C)c(OC)c3OC(=O)Cc3cc(=O)oc5cc(N(C)C)ccc35)C[C@@H]([C@@H]1O)N2C)OCO4 (some centres unmarked) [Compound 77],Toxicity Data Myelo,[1],8.52E-09
same,CC50,"[2]; Homo sapiens, 48 h, read-out: LOVO-DOX LC50, LOVO-DOX",10100 nM
same,LOVO-DOX TGI,[2]; LOVO-DOX,9.39E-08
same,GI50,"[2]; LOVO-DOX, read-out: LOVO-DOX GI50",31.3 nM
same,Toxicity Data Kidney,[3],3.22E-09
same,HT-29 TGI,[4]; HT-29,9.52E-09
same,GI50,"[4]; HT-29, read-out: HT-29 GI50",2.96 nM
same,LC50 (concentration for 50% cell killing),"[4]; Homo sapiens, HT-29, 48 h, read-out: HT-29 LC50, HT-29",10100 nM
same,GI50,"[5]; Homo sapiens, PANC-1, 48 h, PANC-1, read-out: PANC-1 GI50",3.27 nM
same,LC50 (concentration for 50% net cell kill),"[5]; Homo sapiens, PANC-1, 48 h, read-out: PANC-1 LC50, PANC-1",6300 nM
same,PANC-1 TGI,[5]; PANC-1,9.14E-09
same,LOVO TGI,[6],3.96E-09
same,GI50,[6]; read-out: LOVO GI50,1.91 nM
same,LC50 (concentration for 50% cell killing),[6]; read-out: LOVO LC50,8.21 nM
same,GI50,"[7]; Homo sapiens, SK-OV-3, 48 h, SK-OV3, read-out: SK-OV3 GI50",2.55 nM
same,LC50,"[7]; Homo sapiens, SK-OV-3, 48 h, read-out: SK-OV3 LC50, SK-OV3",10100 nM
same,SK-OV3 TGI,[7]; SK-OV3,7.76E-09
same,IGROV TGI,[8],1.53E-09
same,GI50,[8]; read-out: IGROV GI50,0.454 nM
same,CC50,[8]; read-out: IGROV LC50,8.82 nM
same,IGROV-ET TGI,[9],9.57E-08
same,GI50,[9]; read-out: IGROV-ET GI50,4.22 nM
same,CC50,[9]; read-out: IGROV-ET LC50,303 nM
same,DU-145 TGI,[10]; DU-145,1.45E-09
same,GI50,"[10]; DU-145, read-out: DU-145 GI50",0.488 nM
same,CC50,"[10]; Homo sapiens, DU-145, 48 h, read-out: DU-145 LC50, DU-145",10100 nM
same,Toxicity Data Liver,[11],9.53E-09
same,Toxicity Data Heart,[12],1.64E-08
same,MEL-28 TGI,[13],5.06E-10
same,GI50,[13]; read-out: MEL-28 GI50,0.266 nM
same,CC50,[13]; read-out: MEL-28 LC50,0.962 nM
same,TGI A-549,[14],3.64E-09
same,GI50,[14]; read-out: GI50 A-549,2.11 nM
same,LC50 (concentration for 50% cell killing),[14]; read-out: A-549 LC50,6.29 nM
same,HMEC-1 TGI,[15]; HMEC-1,5.28E-08
same,GI50,"[15]; HMEC-1, read-out: HMEC-1 GI50",5.28 nM
same,LC50,"[15]; Homo sapiens, HMEC-1, 48 h, read-out: HMEC-1 LC50, HMEC-1",10100 nM
same,SK-BR3 TGI,[16],2.04E-09
same,GI50,[16]; read-out: SK-BR3 GI50,0.475 nM
same,CC50,[16]; read-out: SK-BR3 LC50,8.12 nM
same,LNCAP TGI,[17],6.12E-10
same,GI50,[17]; read-out: LNCAP GI50,0.328 nM
same,CC50,[17]; read-out: LNCAP LC50,1.58 nM
same,K-562 TGI,[18],7.77E-10
same,GI50,[18]; read-out: K-562 GI50,0.277 nM
same,LC50 (50% cell killing),[18]; read-out: K-562 LC50,37.9 nM
same,Toxicity Data Skeletal,[19],2.20E-09
COc1cc2c(cc1OC(=O)OC(C)(C)C)CCN[C@]21CS[C@@H]2c3c(OC(C)=O)c(C)c4c(c3[C@H](COC1=O)N1C2[C@H]2c3c(cc(C)c(OC)c3OC(=O)OC(C)(C)C)C[C@@H]([C@@H]1O)N2C)OCO4 (some centres unmarked) [Compound 86],Toxicity Data Myelo,[1],8.35E-08
same,Toxicity Data Kidney,[3],1.37E-08
same,IC50,[20],0.52 nM
same,IC50,[21],0.52 nM
same,Toxicity Data Liver,[11],1.47E-08
same,Toxicity Data Heart,[12],8.16E-08
same,IC50,[22],0.52 nM
same,IC50,[23],0.52 nM
same,IC50,[24],0.52 nM
same,Toxicity Data Skeletal,[19],3.88E-08
COc1cc2c(cc1OC(=O)C(F)(F)F)CCN[C@]21CS[C@@H]2c3c(OC(C)=O)c(C)c4c(c3[C@H](COC1=O)N1C2[C@H]2c3c(cc(C)c(OC)c3O)C[C@@H]([C@@H]1O)N2C)OCO4 (some centres unmarked) [Compound 104],Toxicity Data Myelo,[1],1.93E-08
same,Toxicity Data Kidney,[3],2.67E-09
same,IC50,[20],0.583 nM
same,IC50,[21],0.583 nM
same,Toxicity Data Liver,[11],4.16E-09
same,Toxicity Data Heart,[12],3.44E-09
same,IC50,[22],0.583 nM
same,IC50,[23],0.117 nM
same,IC50,[24],0.583 nM
same,Toxicity Data Skeletal,[19],4.10E-07
COc1cc2c(cc1O)CCN[C@]21CS[C@@H]2c3c(OC(=O)/C=C/c4ccccc4)c(C)c4c(c3[C@H](COC1=O)N1C2[C@H]2c3c(cc(C)c(OC)c3O)C[C@@H]([C@@H]1O)N2C)OCO4 (some centres unmarked) [Compound 161],Toxicity Data Myelo,[1],2.27E-08
same,Toxicity Data Kidney,[3],2.60E-09
same,IC50,[20],0.118 nM
same,IC50,[21],0.118 nM
same,Toxicity Data Liver,[11],8.58E-09
same,Toxicity Data Heart,[12],1.13E-08
same,IC50,[22],0.118 nM
same,IC50,[23],0.118 nM
same,IC50,[24],0.118 nM
same,Toxicity Data Skeletal,[19],1.65E-08

# From patent US7759345B2, “Antitumoral derivatives of ET-743” (priority 2001, dated 2010)
